Tests used:
porcine brain tubulin = assay: Tubulin polymerization assay; format: biochemical; conditions: at 10 μM concentration
Procedure: In vitro tubulin polymerization assay was performed by using the Tubulin Polymerization Assay Kit (Cytoskeleton, Inc., Denver, Colo.) in a 96-well format, which used the polymerization of porcine brain tubulin in vitro in the presence of varying concentrations of the test compounds. Fluorescence measurements were obtained at 1-minute intervals over a 31-minute period. Fluorescent measurements were performed using excitation at 365 nm, and emission was measured at 440 nm using a Packard Fusion Alpha Microplate Analyzer. Data were analyzed as relative fluorescent units by GraphPad Prism 5 Demo.

biotinylated tubulin = assay: Colchicine competitive-binding assay; conditions: at 10 μM concentration, 3H-colchicine; for binding rate (%) (colchicine competitive-binding): left column pair of Table 7; for Inhibition rate (%) (colchicine competitive-binding): right column pair of Table 7
Procedure: The colchicine competitive-binding assay was done by using the Colchicine Site competitive Assay Kit (Cytoskeleton, Inc.), streptavidin-coated yttrium SPA beads(GE Healthcare, Inc.), and ^3H-colchicine(PerkinElmer, Inc.). Briefly, the binding mixture includes 1 μL^3H-labeled ligand (specific activity […]), and 1 μg biotinylated tubulin and 88 μg SPA beads in 200 μL assay buffer. The test compound and ^3H-labeled ligand were added before tubulin. After incubation at 37° C. for 2 hours, the SPA beads were allowed to settle down for 24 hours at room temperature, and scintillation counting was done on the TopCount Microplate Scintillation Counter.

KB cell = assay: MTS assay, growth inhibition of KB cells; format: cell-based; conditions: Homo sapiens, at 10 μM concentration, incubated for 72 h, read-out: Inhibition rate (%) (growth inhibition rate of MTS assay)
Procedure: MTS assay was performed in determining the growth inhibition of cancer cells. MTS ((3-(4,5-dimethylthiazol-2-yl)-5-(3-carboxymethoxyphenyl)-2-(4-sulfophenyl)-2H-tetrazolium)), in the presence of phenazine methosulfate (PMS) and reductases, produces a formazan product that has an absorbance maximum at 490-500 nm. MTS assays (and closely related MTT assay) are commonly used to measure cell viabilities or survivals.
Briefly, KB/Hela, NCI-H460, A375, Colo205, HCT-116, U937, MCF-7, MDA-MB-231, A549, H1975 cells were seeded into 96-well plate at 4000, 4000, 2000, 2000, 2000 cells/well. After 24 h for attachment, test compound was added into each well and incubated for 72 h. A total of 20 μl of MTS reaction reagent containing the MTS (Promega, Madison, Wis.) and PMS in a ratio of 20:1 was added into each well to react with dehydrogenase enzyme in survival cells. After 3 h, the absorbance at 490 nm was monitored using Emax precision microplate reader (Molecular Devices, Sunnyvale, Calif.).
The growth inhibition rate of MTS assay at KB cell of these compounds (at 10 μM concentration) are list in Table 5.

COc1ccc(Cc2cnc(NC(=O)CCc3ccccc3)s2)cc1 [Compound 9, N-[5-(4-Methoxy-benzyl)-thiazol-2-yl]-3-phenyl-propionamide]
Inhibition rate (%) of tubulin polymerization (porcine brain tubulin): 79.0%
binding rate (%) (colchicine competitive-binding) (biotinylated tubulin): 77.5%
inhibition at 10 µM (KB cell): 96.1%

COc1ccc(Cc2cnc(NC(=O)CCc3cccnc3)s2)cc1 [Compound 10, N-[5-(4-Methoxy-benzyl)-thiazol-2-yl]-3-pyridin-3-yl-propionamide]
Inhibition rate (%) of tubulin polymerization (porcine brain tubulin): 88.7%
binding rate (%) (colchicine competitive-binding) (biotinylated tubulin): 88.6%
inhibition at 10 µM (KB cell): 94.4%

O=C(CCc1ccc(F)cc1)Nc1ncc(Cc2ccc(F)cc2)s1 [Compound 12, N-[5-(4-Fluoro-benzyl)-thiazol-2-yl]-3-(4-fluoro-phenyl)-propionamide]
binding rate (%) (colchicine competitive-binding) (biotinylated tubulin): 51.2%
inhibition at 10 µM (KB cell): 96%

COc1ccc2cc(Cc3cnc(NC(=O)CCc4ccc(F)cc4)s3)ccc2c1 [Compound 13, 3-(4-Fluoro-phenyl)-N-[5-(6-methoxy-naphthalen-2-ylmethyl)-thiazol-2-yl]-propionamide]
binding rate (%) (colchicine competitive-binding) (biotinylated tubulin): 60.0%
inhibition at 10 µM (KB cell): 94.6%

COc1ccc(Cc2cnc(NC(=O)CCc3cccnc3)s2)cc1OC [Compound 17, N-[5-(3,4-Dimethoxy-benzyl)-thiazol-2-yl]-3-pyridin-3-yl-propionamide]
Inhibition rate (%) of tubulin polymerization (porcine brain tubulin): 65.3%
binding rate (%) (colchicine competitive-binding) (biotinylated tubulin): 76.9%
inhibition at 10 µM (KB cell): 95.9%

O=C(CCc1ccccc1)Nc1ncc(Cc2ccc(C(F)(F)F)cc2)s1 [Compound 47, 3-Phenyl-N-[5-(4-trifluoromethyl-benzyl)-thiazol-2-yl]-propionamide]
Inhibition rate (%) of tubulin polymerization (porcine brain tubulin): 57.2%
binding rate (%) (colchicine competitive-binding) (biotinylated tubulin): 55.4%
inhibition at 10 µM (KB cell): 94.5%

COc1cc(Cc2cnc(NC(=O)CCc3ccccc3)s2)cc(OC)c1OC [Compound 49, 3-Phenyl-N-[5-(3,4,5-trimethoxy-benzyl)-thiazol-2-yl]-propionamide]
binding rate (%) (colchicine competitive-binding) (biotinylated tubulin): 64.9%
inhibition at 10 µM (KB cell): 95.1%

COc1ccc(Cc2cnc(NC(=O)CCc3ccccc3)s2)c(OC)c1OC [Compound 52, 3-Phenyl-N-[5-(2,3,4-trimethoxy-benzyl)-thiazol-2-yl]-propionamide]
Inhibition rate (%) of tubulin polymerization (porcine brain tubulin): 51.2%
binding rate (%) (colchicine competitive-binding) (biotinylated tubulin): 75.4%
inhibition at 10 µM (KB cell): 94.5%

COc1ccc(Cc2cnc(NC(=O)CCc3cccnc3)s2)c(OC)c1OC [Compound 53, 3-Pyridin-3-yl-N-[5-(2,3,4-trimethoxy-benzyl)-thiazol-2-yl]-propionamide]
Inhibition rate (%) of tubulin polymerization (porcine brain tubulin): 62.2%
binding rate (%) (colchicine competitive-binding) (biotinylated tubulin): 78.7%
inhibition at 10 µM (KB cell): 96.7%

COc1ccc(Cc2cnc(NC(=O)CCc3ccc(F)cc3)s2)c(OC)c1OC [Compound 54, 3-(4-Fluoro-phenyl)-N-[5-(2,3,4-trimethoxy-benzyl)-thiazol-2-yl]-propionamide]
binding rate (%) (colchicine competitive-binding) (biotinylated tubulin): 73.3%
inhibition at 10 µM (KB cell): 96.1%

COc1ccc(Cc2cnc(NC(=O)CCc3ccc(C)o3)s2)c(OC)c1OC [Compound 56, 3-(5-Methyl-furan-2-yl)-N-[5-(2,3,4-trimethoxy-benzyl)-thiazol-2-yl]-propionamide]
binding rate (%) (colchicine competitive-binding) (biotinylated tubulin): 88.3%
inhibition at 10 µM (KB cell): 94.7%

O=C(CCc1ccccc1)Nc1ncc(-c2ccc(F)cc2)s1 [Compound 58, N-[5-(4-Fluoro-phenyl)-thiazol-2-yl]-3-phenyl-propionamide]
Inhibition rate (%) of tubulin polymerization (porcine brain tubulin): 55.1%
inhibition at 10 µM (KB cell): 85.8%

Cc1nc(NC(=O)CCc2ccccc2)sc1-c1ccc(F)cc1 [Compound 59, N-[5-(4-Fluoro-phenyl)-4-methyl-thiazol-2-yl]-3-phenyl-propionamide]
binding rate (%) (colchicine competitive-binding) (biotinylated tubulin): 76.3%
inhibition at 10 µM (KB cell): 93.5%

Cc1nc(NC(=O)CCc2ccccc2)sc1Cc1ccc2c(c1)OCO2 [Compound 60, N-(5-Benzo[1,3]dioxol-5-ylmethyl-4-methyl-thiazol-2-yl)-3-phenyl-propionamide]
binding rate (%) (colchicine competitive-binding) (biotinylated tubulin): 64.6%
inhibition at 10 µM (KB cell): 95.1%

Cc1nc(NC(=O)CCc2ccc(F)cc2)sc1Cc1ccc2c(c1)OCO2 [Compound 61, N-(5-Benzo[1,3]dioxol-5-ylmethyl-4-methyl-thiazol-2-yl)-3-(4-fluoro-phenyl)-propionamide]
binding rate (%) (colchicine competitive-binding) (biotinylated tubulin): 57.9%
inhibition at 10 µM (KB cell): 90.9%

Cc1nc(NC(=O)CCc2cccnc2)sc1Cc1ccc2c(c1)OCO2 [Compound 62, N-(5-Benzo[1,3]dioxol-5-ylmethyl-4-methyl-thiazol-2-yl)-3-pyridin-3-yl-propionamide]
binding rate (%) (colchicine competitive-binding) (biotinylated tubulin): 55.3%
inhibition at 10 µM (KB cell): 96%

COc1cccc(CCC(=O)Nc2nc(C)c(Cc3ccc4c(c3)OCO4)s2)c1 [Compound 63, N-(5-Benzo[1,3]dioxol-5-ylmethyl-4-methyl-thiazol-2-yl)-3-(3-methoxy-phenyl)-propionamide]
binding rate (%) (colchicine competitive-binding) (biotinylated tubulin): 63.3%
inhibition at 10 µM (KB cell): 95.6%

Cc1ccc(CCC(=O)Nc2ncc(Oc3ccc(F)cc3)s2)o1 [Compound 64, N-[5-(4-Fluoro-phenoxy)-thiazol-2-yl]-3-(5-methyl-furan-2-yl)-propionamide]
binding rate (%) (colchicine competitive-binding) (biotinylated tubulin): 54.4%
inhibition at 10 µM (KB cell): 95.9%

O=C(CCc1ccccc1)Nc1ccc(Sc2ccccc2)cn1 [Compound 81, 3-Phenyl-N-(5-phenylsulfanyl-pyridin-2-yl)-propionamide]
Inhibition rate (%) (colchicine competitive-binding) (biotinylated tubulin): 70.0%
inhibition at 10 µM (KB cell): 95.1%

Cc1ccc(CCC(=O)Nc2ncc(-n3ccnc3)cc2C)o1 [Compound 87, N-(5-Imidazol-1-yl-3-methyl-pyridin-2-yl)-3-(5-methyl-furan-2-yl)-propionamide]
Inhibition rate (%) (colchicine competitive-binding) (biotinylated tubulin): 54.6%
inhibition at 10 µM (KB cell): 93.9%

O=C(/C=C/c1ccccc1)Nc1ncc(-c2ccccc2)cn1 [Compound 93, 3-Phenyl-N-(5-phenyl-pyrimidin-2-yl)-acrylamide]
Inhibition rate (%) (colchicine competitive-binding) (biotinylated tubulin): 57.2%
inhibition at 10 µM (KB cell): 96%

O=C(/C=C/c1ccccc1)Nc1ncc(-c2ccc(F)cc2)cn1 [Compound 98, N-[5-(4-Fluoro-phenyl)-pyrimidin-2-yl]-3-phenyl-acrylamide]
Inhibition rate (%) (colchicine competitive-binding) (biotinylated tubulin): 57.5%
inhibition at 10 µM (KB cell): 81.9%

COc1cccc(-c2cnc(NC(=O)/C=C/c3ccccc3)nc2)c1OC [Compound 101, N-[5-(2,3-Dimethoxy-phenyl)-pyrimidin-2-yl]-3-phenyl-acrylamide]
Inhibition rate (%) (colchicine competitive-binding) (biotinylated tubulin): 56.9%
inhibition at 10 µM (KB cell): 97.5%

Cc1ccc(CCC(=O)Nc2ncc(-c3cccc4ccccc34)cn2)o1 [Compound 103, 3-(5-Methyl-furan-2-yl)-N-(5-naphthalen-1-yl-pyrimidin-2-yl)-propionamide]
Inhibition rate (%) (colchicine competitive-binding) (biotinylated tubulin): 81.1%
inhibition at 10 µM (KB cell): 94.1%

O=C(CCc1ccccc1)Nc1ncc(-c2cccc3ccccc23)cn1 [Compound 104, N-(5-Naphthalen-1-yl-pyrimidin-2-yl)-3-phenyl-propionamide]
Inhibition rate (%) (colchicine competitive-binding) (biotinylated tubulin): 61.3%
inhibition at 10 µM (KB cell): 96.6%

Cc1cc(-c2ccc(N(C)C)cc2)cnc1NC(=O)CCc1ccccc1 [Compound 119, N-[5-(4-Dimethylamino-phenyl)-3-methyl-pyridin-2-yl]-3-phenyl-propionamide]
Inhibition rate (%) (colchicine competitive-binding) (biotinylated tubulin): 58.2%
inhibition at 10 µM (KB cell): 95.1%
